Usually Ki stands for a measure of affinity in units of concentration, obtained from inhibition or displacement. The low end stands for tighter binding, the high end for weaker binding.

“Also recorded” adds a separate entry of the source. Read-outs that look alike come from different tables or passages of the source.

The values that follow come from patent publication EP1039902B1, “INHIBITORS OF GAP JUNCTION COMMUNICATION” (THE SCRIPPS RESEARCH INSTITUTE, priority 1997, dated 1999).

In one assay the test system is astrocyte. The note with it: cited from earlier work.
Another assay deals with astrocyte calcium waves. To be noted: mechanical stimulation or local glutamate application; cited from earlier work.
Assay [1] concerns rat glial cell gap junction. Nature of the assay: Gap junction dye coupling assay (Lucifer yellow dye transfer; microinjection or scrape loading). The format is cell-based. To be noted: for potency of gap junction inhibition relative to oleamide: comparison in words; for reversibility of gap junction inhibition: removal of media containing the agent, replacement with fresh media. The method, then:
(§1) Rat glial cells (Suter et al., 1987) obtained from Dr. Trosko's laboratory were cultured in standard plastic tissue cultureware in Richter's Improved Minimal Essential Medium (Irvine Scientific, Santa Ana, CA), supplemented with 10% fetal calf serum and 50 µg/ml gentamicin sulfate, and incubated in a humidified atmosphere of 95% air/5% CO2 at 37°C. The cells were passaged by trypsinization and used at passages 4-8. BHK (baby hamster kidney) cells that were stably transfected with a β1 connexin cDNA (Kumar et al., 1995) were cultured in DMEM medium supplemented with 5% fetal calf serum and 50 µg/ml gentamicin sulfate, and incubated in a humidified atmosphere of 95% air/5% CO2 at 37° C. In order to induce β1 connexin expression in the BHK cells, 100 µM zinc acetate was added to culture medium for 8-18 hours when the cell culture was about 90% confluent.
(§2) Gap junctional communication in glial cell and BHK/β1 cell cultures was assayed by microinjection of 5% Lucifer yellow CH dye in 0.1 M LiCl solution, and quantitated by determining the number of directly adjacent, neighboring cells that received dye (dye-coupling). Micropipettes were loaded with the dye solution by backfilling. Cells were visualized using a Nikon Diaphot inverted phase contrast/ epifluorescent microscope, and impaled with dye-filled micropipettes using an Eppendorf microinjector (model 5246). Five minutes after dye-injection, the transfer of dye to directly adjacent cells was determined using epifluorescent illumination. For each treatment condition, ten cells were microinjected in each of three dishes, the total number of dye-coupled neighboring cells was calculated and compared to determine the % dye-coupling. For scrape loading measurements, Lucifer yellow CH (0.05% dye in PBS) was loaded intracellularly by cutting or scraping cells in the monolayer with a sharp knife. The dye solution was left in the dish for 90 seconds, then the solution was discarded, and the dish subsequently washed with PBS. The cells were examined for dye transfer with an inverted epifluorescence microscope, and the degree of communication was assessed by determining the extent of Lucifer yellow transfer into contiguous cells.

Assay [2] can be described thus: Induction of physiological sleep. The format is in vivo. To be noted: rats.
For the next assay, the system named is α1 connexin. Description: Immunoblotting of α1 connexin phosphorylation isoforms. The format is cell-based, rat. To be noted: 50 µM, 4 hours. On the procedure:
Plasma membrane fractions containing gap junctions were obtained after hypotonic alkali extraction of the glial cells. The extracted protein was dissolved in 2% SDS and the total protein was determined using the Bio-Rad DC Protein Assay kit (Bio-Rad Corp.). 10 µg of protein was electrophoresed by 10% SDS-PAGE, and subsequently blotted electrophoretically on to Immobilon-P membranes (Millipore Corp.). Gap junction protein was detected using anti-α1 connexin polyclonal rabbit antibodies, and the HRP/Chemiluminescence detection kit (Amersham Corp.) following the manufacturer's instructions.

A further assay relates to BHK/β1 cells. Description: Gap junction dye transfer between β1 connexin-transfected BHK cells. The format is cell-based, baby hamster. On the procedure: as §1, §2
A further assay concerns rat cardiac myocytes. To be noted: cited from earlier work.
Assay [3] relates to rat liver epithelial cells. To be noted: cited from earlier work.
For assay [4], the system named is rat glial cells. Nature of the assay: Gap junction electrical coupling assay (double whole cell patch recording). The format is cell-based. The note with it: concentration not given. The method, then:
Junctional conductance was measured using double whole cell patch recording performed on pairs of rat glial cells as described (Miller et al., (1992) J Mem. Biol. 128, 91-102) with a pipette solution of (in […]): Kaspartate 160, EGTA 10, CaCl2 2, HEPES 10 (pH 7.2), ATP 4. The external solution contained (in mM): NaCl 160, KCl 4.5, CaCl2 2, MgCl2 1, HEPES 10, pH 7.4. Both cells were held at -40 mV and pulses to -20 mV were alternately applied to each cell. Holding currents were subtracted in the records shown. Cells that were examined were generally in contact with other cells. The electrical conductance was calculated as the junctional current divided by 20 mV. All dye-coupling and conductance studies were performed at room temperature.

For assay [5], the system named is rat glial cells. Nature of the assay: Calcium wave propagation (Fluo-3, mechanical stimulation). The format is cell-based. The note with it: concentration not given. The method, then:
Rat glial cells were loaded with 5 µM Fluo-3/AM (Calbiochem) in Hank's balanced salt solution containing 25 mM HEPES buffer (HBSS/HEPES) for 1 hour, at which point the loading buffer was exchanged for new HBSS/HEPES buffer. The cell cultures were then left at room temperature for at least 30 minutes. Mechanical stimulation of a single cell was performed as follows: a glass micropipette (tip diameter of approximately 0.5 µm) was micro-manipulated downward on to a single cell causing a transient deformation of the cell membrane. The calcium image was then examined with an inverted fluorescence microscope, and photographed with a digital fluorescence microscope (excitation = 506 nm, emmision = 526 nm). The degree of calcium wave propagation was quantitated by counting at different time points the number of transmitting cells in one linear direction away from the stimulated cell. Junctional dye transfer rates were simultaneously examined by microinjection of Lucifer yellow CH in the same dishes; the methods for dye transfer assay was described in assay procedures, gap junction dye coupling assays. For calcium wave and dye transfer studies, the drug was preincubated with the glial cells for 10 minutes, and the drug was left in the experimental solution throughout the examination. All measurements were performed at room temperature.

The target of assay [6] is T1, fatty acid amide hydrolase (Rattus norvegicus, UniProt P97612).
T1 sequence (P97612 1-579): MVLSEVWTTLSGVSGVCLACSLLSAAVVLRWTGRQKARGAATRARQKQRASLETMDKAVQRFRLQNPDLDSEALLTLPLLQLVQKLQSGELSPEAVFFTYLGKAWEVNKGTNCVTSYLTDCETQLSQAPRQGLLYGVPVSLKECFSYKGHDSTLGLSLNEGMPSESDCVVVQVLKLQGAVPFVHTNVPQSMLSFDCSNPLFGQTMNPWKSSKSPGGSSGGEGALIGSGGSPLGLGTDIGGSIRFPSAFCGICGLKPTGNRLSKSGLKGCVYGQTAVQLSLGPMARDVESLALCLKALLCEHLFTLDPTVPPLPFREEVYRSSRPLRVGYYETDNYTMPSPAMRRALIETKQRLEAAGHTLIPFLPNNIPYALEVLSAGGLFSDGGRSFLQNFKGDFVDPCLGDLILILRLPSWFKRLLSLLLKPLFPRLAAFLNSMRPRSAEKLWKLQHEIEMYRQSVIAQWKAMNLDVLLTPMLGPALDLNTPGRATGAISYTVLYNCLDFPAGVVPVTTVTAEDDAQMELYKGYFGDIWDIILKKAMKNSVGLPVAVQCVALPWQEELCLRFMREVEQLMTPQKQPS
Description: Inhibition of fatty acid amide hydrolase. The class given is biochemical.

Assay [7] deals with Chinese hamster V79 cells. To be noted: cited from earlier work.
The test system of a further assay is striatal astrocytes. To be noted: cited from earlier work.
Where [8] appears, read: result in words, concentration not stated at the place.

Take `CCCCCCCC/C=C\CCCCCCCC(=O)NCCO` [oleyl ethanolamide]: the “gap junction-mediated dye transfer” value in the assay with astrocyte is given as “inhibit gap junction-mediated dye transfer”. In the assay with astrocyte calcium waves, the “propagation of astrocyte calcium waves” value is “block the propagation of astrocyte calcium waves”. Besides, the “inhibition of gap junction-mediated dye transfer” value in assay [1] (50 µM) is recorded as “effective inhibitors”; in assay [1] (50 µM, listed as Oleyl ethanolamide), “significant inhibitors”. Moreover, the “potency of gap junction inhibition relative to oleamide” value in assay [1] is “less potent than oleamide”; in [1] (listed as Oleyl ethanolamide), “less potent than oleamide at lower doses”.

Turning to `CCCCCCCC/C=C\CCCCCCCCCCCC(N)=O` [erucamide, Erucamide], the “inhibition of gap junction-mediated dye transfer” value in assay [1] (setting [8]) is reported as “not an inhibitor”. In assay [2], the “induction of physiological sleep” value is reported as “does not induce physiological sleep”.

Consider `CCCCCCCC/C=C/CCCCCCCC(N)=O` [trans-9-octadecenamide], for which the “inhibition of gap junction-mediated dye transfer” value is given as “no observable inhibition” in assay [1] (result in words, concentration not given, listed as 18:1^9-trans) and “ineffective; also recorded: no effect” in [1] (setting [8]). The “α1 connexin phosphorylation profile (P2 isoform)” value in the assay on α1 connexin is “No change”. The “effect on dye transfer” value in the assay on BHK/β1 cells (50 µM, 4 hours of treatment) is “no effect”; with BHK/β1 cells (concentration not given) it was “no effect”.

As to `CCCCCCCC/C=C\CCCCCCCC(=O)O` [Oleic acid, reference compound], the “inhibition of gap junction-mediated dye transfer” value is “inactive; also recorded: no effect” in assay [1] (setting [8]) and “no effect” in assay [1] (result in words, concentration not stated at the place, listed as oleic acid). In the assay with α1 connexin, the “α1 connexin phosphorylation profile (P2 isoform)” value is on record as “No change”. Further, the gap junction inhibition entry in the assay with rat cardiac myocytes is “inhibit the gap junction”; in the assay with rat cardiac myocytes (listed as oleic acid) it was “inhibit gap junction communication”. The “effect on dye transfer” value was “no effect” in the assay on BHK/β1 cells (50 µM, 4 hours of treatment) and “no effect” in the assay with BHK/β1 cells (concentration not given).

Take `CC/C=C\C/C=C\C/C=C\CCCCCCCC(=O)O` [α-linolenic acid]: in assay [3], the gap junction inhibition result is on record as “inhibit the gap junction”.

Consider `CCCCC/C=C\C/C=C\C/C=C\C/C=C\CCCC(=O)NCCO` [anandamide, reference compound], for which the “gap junction-mediated dye transfer” value in the assay on astrocyte is “inhibit gap junction-mediated dye transfer”. In addition, the “propagation of astrocyte calcium waves” value in the assay with astrocyte calcium waves is “block the propagation of astrocyte calcium waves”. The “inhibition of gap junction-mediated dye transfer” value in assay [1] (50 µM) is recorded as “effective inhibitors”; in assay [1] (setting [8]) it was “selectively inhibiting gap junction communication”. For the same molecule, the “potency of gap junction inhibition relative to oleamide” value in assay [1] is listed as “blocked dye transfer at doses comparable to oleamide”. The electrical coupling result with rat glial cells [4] was “selectively inhibiting gap junction communication”. In addition, the calcium wave transmission entry in the assay on rat glial cells [5] is listed as “without affecting calcium wave transmission”. In the assay on BHK/β1 cells (concentration not given), the “effect on dye transfer” value is on record as “inhibitory effects”.

`CCCCCCCC/C=C\CCCCCCCC(=O)C(F)(F)F` [CF3] returned a Ki in [6] of 1 nM. Moreover, in assay [1], the “potency of gap junction inhibition relative to oleamide” value is recorded as “significantly more potent than oleamide” and the “reversibility of gap junction inhibition” value is “reversible effect”.

`CCCCCCCC/C=C\CCCCCCCC=O` [oleyl aldehyde] registered a Ki in assay [6] of 190 nM. Also, in assay [1], the “potency of gap junction inhibition relative to oleamide” value is reported as “nearly equipotent with oleamide” and the “reversibility of gap junction inhibition” value is given as “reversible effect”. For the same molecule, the “inhibition of gap junction-mediated dye transfer” value in assay [1] (setting [8]) is on record as “surprisingly effective”.

As for `CCCCCCCC/C=C\CCCCCCCC(=O)OCC(CO)OC(C)=O` (racemic) [1-oleoyl-2-acetylglycerol, reference compound], the “inhibition of gap junction-mediated dye transfer” value in assay [1] (setting [8]) is on record as “not inhibitors”. The gap junction inhibition entry in [7] was “gap junction inhibition”.

Regarding `CCCCC/C=C\C/C=C\C/C=C\C/C=C\CCCC(=O)O` [arachidonic acid], the gap junction inhibition entry in the assay on striatal astrocytes is given as “inhibit the gap junction”.
